Assay results published in patent US9644000B2, “V1a receptor agonists” (Ferring B.V., priority 2012, dated 2017).
*1 amine or outer side, *2 acyl side, *3 side chain or, on linkers, in order; H or OH if unused. Where a SMILES comes first, the peptide text is derived from it. Bridges are numbered along the chain shown (N, C = ends). Roman numbers before positions name the chains, in order. [ ]: non-standard residue; d: D form. The star is where a group is joined. d(isoGln) = NC(=O)[C@@H](CCC(=O)[*:2])N[*:1]; isoGln = NC(=O)[C@H](CCC(=O)[*:2])N[*:1]; d(εLys) = N[C@H](CCCCN[*:1])C(=O)[*:2]; Aad = N[C@@H](CCCC(=O)O)C(=O)O; Cit = NC(=O)NCCC[C@H](N)C(=O)O; Dab = NCC[C@H](N)C(=O)O; PhAc = O=C(Cc1ccccc1)*

What was measured:
human V1aR = biological target: T1, human V1aR (Homo sapiens, UniProt P37288); experiment: FLIPR calcium agonist assay in HEK-flpin cells expressing the vasopressin V1a receptor; format: cell-based
T1 construct: expressed in transfected cells
Method: Efficacy (% MPE) is also determined as the percentage of maximal possible effect. This agonist assay utilizes cells from a stable cell line (HEK-flpin) expressing the vasopressin V1a receptor. Intracellular calcium increase in response to agonist is measured through real-time fluorescence of an intracellular calcium-sensitive dye. Cells are exposed to varying concentrations of test agonist compounds whereupon release of intracellular calcium is measured to determine the agonist potency and efficacy.
The cell line stably expresses the lacZ-Zeocin™ fusion gene and is designed for use with the Flp-In™ expression vector containing the gene of interest and the Flp recombinase expression plasmid, pOG44. The cell line contains a single integrated Flp Recombination Target (FRT) site from pFRT/lacZeo or pFRT/lacZeo2. To generate the HEK-flpin cell line stably expressing the human V1aR, the cells were co-transfected with the Flp-In™ expression vector containing the gene of interest (pcDNA5/FRT-hV1aR) and the Flp recombinase expression plasmid pOG44. Flp recombinase mediates insertion of the Flp-In™ expression vector into the genome at the integrated FRT site through site-specific DNA recombination. Stable cell lines expressing the hV1aR from the Flp-In™ expression vector can be generated by selection using hygromycin B. See Life Technologies/Invitrogen manual, Growth and Maintenance of Flp-In™ Cell Lines, Version E, published Feb.
Efficacy of this compound was set to be 100%. A stock solution of 5 mM was made up in DMSO and stored at −20° C.
HEK-flpin-hV1aR, cmcqV1aR, dV1aR and pV1aR cells were maintained in DMEM containing 10% (v/v) FBS-HI, 4 mM GlutaMAX™-I, 25 μg/mL Hygromycin B at 37° C. under 5% CO2 in a humidified atmosphere. […]
The cell plates were transferred to FLIPR Tetra, along with a 384 well V-bottom plate pre-loaded with half-log concentrations of test compounds at 10× final test concentrations. […] The agonist-induced fluorescence signal was then measured for 180 s with initial 120 readings at 1-second intervals followed by 20 readings at 3-second intervals. […]

[1] = HRS1 patients; cited from earlier work

T1 sequence (P37288 whole entry): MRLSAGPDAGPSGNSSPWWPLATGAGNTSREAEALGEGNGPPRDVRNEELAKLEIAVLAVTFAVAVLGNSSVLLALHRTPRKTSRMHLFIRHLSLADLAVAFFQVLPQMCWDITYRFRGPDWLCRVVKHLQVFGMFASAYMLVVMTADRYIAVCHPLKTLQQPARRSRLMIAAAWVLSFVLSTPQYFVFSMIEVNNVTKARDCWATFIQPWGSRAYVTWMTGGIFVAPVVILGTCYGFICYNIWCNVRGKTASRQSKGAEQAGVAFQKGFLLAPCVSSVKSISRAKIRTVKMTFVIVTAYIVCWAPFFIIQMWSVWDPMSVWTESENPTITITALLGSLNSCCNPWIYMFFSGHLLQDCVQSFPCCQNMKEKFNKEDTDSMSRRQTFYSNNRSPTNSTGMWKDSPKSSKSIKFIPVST

Compound | EC50 (human V1aR) [nM] | further results
CC[C@H](C)[C@@H]1NC(=O)[C@H](Cc2ccccc2)NC(=O)[C@@H](N)CSSC[C@@H](C(=O)N2CCC[C@H]2C(=O)N[C@@H](CCNC(=O)[C@H](N)CCCCNC(=O)CC[C@@H](NC(=O)[C@H](CCCNC(=N)N)NC(=O)[C@@H]2CCCN2C(=O)[C@H](CCCNC(N)=O)NC(=O)[C@H](CC(N)=O)NC(=O)[C@H](CCC(N)=O)NC(=O)[C@H](Cc2ccccc2)NC(=O)[C@@H](Cc2ccc(OC)cc2)NC(=O)Cc2ccccc2)C(N)=O)C(=O)NCC(N)=O)NC(=O)[C@H](CC(N)=O)NC(=O)[C@H](CCC(N)=O)NC1=O [Compound 55] (I: H-CFIQNCP[Dab]G-NH2 / II: PhAc-[dY](Me)FQN[Cit]PR[d(isoGln)][d(εLys)]; disulfide I:1-I:6; amide I:8-II:C) | 1.7 | –
CC[C@H](C)[C@@H]1NC(=O)[C@H](Cc2ccccc2)NC(=O)[C@@H](N)CSSC[C@@H](C(=O)N2CCC[C@H]2C(=O)N[C@@H](CCNC(=O)[C@H](N)CCCCNC(=O)CC[C@H](NC(=O)[C@H](CCCNC(=N)N)NC(=O)[C@@H]2CCCN2C(=O)[C@H](CCN)NC(=O)[C@H](CC(N)=O)NC(=O)[C@H](CCC(N)=O)NC(=O)[C@H](Cc2ccccc2)NC(=O)[C@@H](Cc2ccc(OC)cc2)NC(=O)Cc2ccccc2)C(N)=O)C(=O)NCC(N)=O)NC(=O)[C@H](CC(N)=O)NC(=O)[C@H](CC(N)=O)NC1=O [Compound 59] (I: H-CFINNCP[Dab]G-NH2 / II: PhAc-[dY](Me)FQN[Dab]PR[isoGln][d(εLys)]; disulfide I:1-I:6; amide I:8-II:C) | 1.7 | –
CC[C@H](C)[C@@H]1NC(=O)[C@H](Cc2ccccc2)NC(=O)[C@@H](N)CSSC[C@@H](C(=O)N2CCC[C@H]2C(=O)N[C@@H](CCNC(=O)[C@H](N)CCCCNC(=O)CC[C@H](NC(=O)[C@H](CCCNC(=N)N)NC(=O)[C@@H]2CCCN2C(=O)[C@H](C)NC(=O)[C@H](CC(N)=O)NC(=O)[C@H](CCC(N)=O)NC(=O)[C@H](Cc2ccccc2)NC(=O)[C@@H](Cc2ccc(OC)cc2)NC(=O)Cc2ccccc2)C(N)=O)C(=O)NCC(N)=O)NC(=O)[C@H](CC(N)=O)NC(=O)[C@H](CCCC(N)=O)NC1=O [Compound 62] (I: H-CFI[Aad](NH2)NCP[Dab]G-NH2 / II: PhAc-[dY](Me)FQNAPR[isoGln][d(εLys)]; disulfide I:1-I:6; amide I:8-II:C) | – | Efficacy Avg. (% MPE, as compared to AVP) (human V1aR; HEK-flpin-hV1aR cells, AVP efficacy set to 100%): 31%
NCCCC[C@H](NC(=O)[C@@H]1CCCN1C(=O)[C@@H]1CSSC[C@H](NC(=O)CNC(=O)CNC(=O)CN)C(=O)N[C@@H](Cc2ccc(O)cc2)C(=O)N[C@@H](Cc2ccccc2)C(=O)N[C@@H](CCC(N)=O)C(=O)N[C@@H](CC(N)=O)C(=O)N1)C(=O)NCC(N)=O [Terlipressin, terlipressin] (H-GGGCYFQNCPKG-NH2; disulfide 4-9) | – | patients in whom renal failure is reversed [1]: 30-40%
